Measurements as given in patent publication US5574008A, “Biologically active fragments of glucagon-like insulinotropic peptide” (Eli Lilly and Company, priority 1994, dated 1996).

Tested on: fasted normal Sprague-Dawley rats
Test: In vivo hyperglycemic clamp assay (glucose up-take assay)
Parameters: species or system rat
Conditions: 0.3 nmol/kg iv bolus at 60 min
Text: In vivo Hyperglycemic Clamp Assay (Glucose Up-take Assay) Male Sprague-Dawley rats (Charles Rivers) weighing about 350 grams were allowed to acclimate to their surroundings for a week after which they were cannulated under isoflurane inhalation anesthetic. Two catheters were implanted into the jugular vein for infusions of glucose and GLP-1 fragment. Another catheter was implanted into the carotid artery for sampling blood. The catheters were exteriorized through the skin at the vertex of the head, filled with a glycerol/heparin solution (30 ml glycerol/10 ml heparin from a 1000 u/ml stock solution), and closed off with a one centimeter stainless steel plug. The rats were housed individually in wire mesh cages and were fed ad libitum on a standard rat chow diet. Each animal was given at least one week to recover from surgery before testing any GLP-1 fragments for biological activity. The rats were fasted overnight; on the morning of the experiment, sampling tubes were connected to the indwelling catheters, and the tubes were enclosed in a light weight stainless steel spring for protection. The rats were acclimated to their cages for 15 minutes. All experiments were carried out in conscious, free moving rats. A basal blood sample was taken for measurement of insulin and glucose levels at time zero on the timer. The rats were then given a bolus of 20% dextrose to raise plasma glucose to either 150 mg/dl (8.3 mM) or 200 mg/dl (11.2 mM). Plasma glucose levels were maintained at the chosen level by measuring plasma glucose levels approximately every 5 minutes and adjusting the calibrated variable infusion pump as needed to maintain the established blood glucose levels. Blood samples were collected at 45 and 60 minutes for the control period measurements. At 60 minutes into the clamp, 0.3 nmol/kg of the experimental GLP-1 fragment was injected via the jugular vein catheter and flushed with saline. […] The blood samples were centrifuged in a micro centrifuge to separate the plasma component. Plasma glucose was measured on a Beckman Glucose analyzer II using the glucose oxidase method. Plasma insulin was determined by standard radio immunoassay as per the manufacturer's directions (Diagnostic Products Corp.). The activity of the GLP-1 fragment was determined by the percentage change in glucose infusion rate and change in insulin secreted. These two parameters were compared to control rats that received only diluent. Note: This assay is based on reports that GLP-1 insulinotropic action is glucose dependent. The assay protocol eliminates variability due to falling glucose levels in other protocols using the "bolus" method. The hyperglycemic clamp involved administration of variable amounts of glucose (20% dextrose) to maintain glucose at a constant level of 8.3 or 11.2 mM in fasted normal Sprague-Dawley rats. The hyperglycemic clamp is maintained for 1 hour after which the GLP-1 fragment is injected as a bolus through the jugular vein. […] The glucose infusion rate (GIR) in the last 15 minutes of the control period and after the injection of the peptide is calculated. The activity of the peptide is determined by the increase in glucose infusion rate and change in insulin secreted after the injection of the peptide.

[1] = 150 mg/dl plasma glucose clamp, time 60 min
[2] = 150 mg/dl plasma glucose clamp, time 62 min
[3] = 150 mg/dl plasma glucose clamp, time 64 min
[4] = 150 mg/dl plasma glucose clamp, time 66 min
[5] = 150 mg/dl plasma glucose clamp, time 68 min
[6] = 150 mg/dl plasma glucose clamp, time 70 min
[7] = 150 mg/dl plasma glucose clamp, time 75 min
[8] = 150 mg/dl plasma glucose clamp, time 80 min
[9] = 150 mg/dl plasma glucose clamp, time 85 min
[10] = 150 mg/dl plasma glucose clamp, time 90 min
[11] = 150 mg/dl plasma glucose clamp, time 100 min
[12] = 150 mg/dl plasma glucose clamp, time 110 min
[13] = 150 mg/dl plasma glucose clamp, time 120 min
[14] = 150 mg/dl plasma glucose clamp, time 130 min
[15] = 150 mg/dl plasma glucose clamp, time 140 min
[16] = 150 mg/dl plasma glucose clamp, time 150 min
[17] = 200 mg/dl plasma glucose clamp, time 60 min
[18] = 200 mg/dl plasma glucose clamp, time 62 min
[19] = 200 mg/dl plasma glucose clamp, time 64 min
[20] = 200 mg/dl plasma glucose clamp, time 66 min
[21] = 200 mg/dl plasma glucose clamp, time 68 min
[22] = 200 mg/dl plasma glucose clamp, time 70 min
[23] = 200 mg/dl plasma glucose clamp, time 75 min
[24] = 200 mg/dl plasma glucose clamp, time 80 min
[25] = 200 mg/dl plasma glucose clamp, time 85 min
[26] = 200 mg/dl plasma glucose clamp, time 90 min
[27] = 200 mg/dl plasma glucose clamp, time 100 min
[28] = 200 mg/dl plasma glucose clamp, time 110 min
[29] = 200 mg/dl plasma glucose clamp, time 120 min
[30] = 200 mg/dl plasma glucose clamp, time 130 min
[31] = 200 mg/dl plasma glucose clamp, time 140 min
[32] = 200 mg/dl plasma glucose clamp, time 150 min

With GLP-1(7-37)OH the “% Change in GIR” value [1] was 11.15%, the “Plasma Insulin Change” value [1] was 1.140 ng/mL and the “% Change in GIR” value [2] was -0.20%. The “Plasma Insulin Change” value [2] was 7.233 ng/mL, the “% Change in GIR” value [3] was 11.15% and the “Plasma Insulin Change” value [3] was 1.464 ng/mL. The “% Change in GIR” value [4] was 1.66%, the “Plasma Insulin Change” value [4] was 0.324 ng/mL and the “% Change in GIR” value [5] was 5.64%. For the same substance, the “Plasma Insulin Change” value [5] was -0.016 ng/mL, the “% Change in GIR” value [6] was 19.95% and the “Plasma Insulin Change” value [6] was -0.375 ng/mL. The “% Change in GIR” value [7] was 71.90%, the “Plasma Insulin Change” value [7] was -0.465 ng/mL and the “% Change in GIR” value [8] was 92.63%. The “Plasma Insulin Change” value [8] was -0.357 ng/mL, the “% Change in GIR” value [9] was 61.76% and the “Plasma Insulin Change” value [9] was -0.020 ng/mL. For the same substance, the “% Change in GIR” value [10] was 14.74%, the “Plasma Insulin Change” value [10] was -0.181 ng/mL and the “% Change in GIR” value [11] was -26.22%. For the same substance, the “Plasma Insulin Change” value [11] was -0.358 ng/mL, the “% Change in GIR” value [12] was -38.57% and the “Plasma Insulin Change” value [12] was -0.174 ng/mL. The “% Change in GIR” value [13] was -48.67%, the “Plasma Insulin Change” value [13] was -0.326 ng/mL and the “% Change in GIR” value [14] was -54.82%. For the same substance, the “Plasma Insulin Change” value [14] was -0.578 ng/mL, the “% Change in GIR” value [15] was -58.43% and the “Plasma Insulin Change” value [15] was -0.367 ng/mL. For the same substance, the “% Change in GIR” value [16] was -63.58%, the “Plasma Insulin Change” value [16] was -0.465 ng/mL and the “% Change in GIR” value [17] was 20.449%. For the same substance, the “Plasma Insulin Change” value [17] was 1.887 ng/mL, the “% Change in GIR” value [18] was 25.050% and the “Plasma Insulin Change” value [18] was 11.101 ng/mL. For the same substance, the “% Change in GIR” value [19] was 23.583%, the “Plasma Insulin Change” value [19] was 4.219 ng/mL and the “% Change in GIR” value [20] was 15.374%. For the same substance, the “Plasma Insulin Change” value [20] was 3.246 ng/mL, the “% Change in GIR” value [21] was 19.465% and the “Plasma Insulin Change” value [21] was 1.359 ng/mL. The “% Change in GIR” value [22] was 50.305%, the “Plasma Insulin Change” value [22] was -0.208 ng/mL and the “% Change in GIR” value [23] was 71.461%. For the same substance, the “Plasma Insulin Change” value [23] was -0.692 ng/mL, the “% Change in GIR” value [24] was 88.390% and the “Plasma Insulin Change” value [24] was -0.456 ng/mL. The “% Change in GIR” value [25] was 86.482%, the “Plasma Insulin Change” value [25] was -0.177 ng/mL and the “% Change in GIR” value [26] was 55.677%. The “Plasma Insulin Change” value [26] was -0.250 ng/mL, the “% Change in GIR” value [27] was 11.304% and the “Plasma Insulin Change” value [27] was -0.301 ng/mL. The “% Change in GIR” value [28] was -12.411%, the “Plasma Insulin Change” value [28] was -0.222 ng/mL and the “% Change in GIR” value [29] was -7.123%. The “Plasma Insulin Change” value [29] was -0.405 ng/mL, the “% Change in GIR” value [30] was -17.745% and the “Plasma Insulin Change” value [30] was -0.590 ng/mL. The “% Change in GIR” value [31] was -15.311%, the “Plasma Insulin Change” value [31] was -0.289 ng/mL and the “% Change in GIR” value [32] was -21.279%. The “Plasma Insulin Change” value [32] was -0.280 ng/mL.

For “GLP-1(R26)(9-36)NH2 [GLP-1(R26) (9-36)NH2]”, the “% Change in GIR” value [17] was 19.020%, the “Plasma Insulin Change” value [17] was 1.692 ng/mL and the “% Change in GIR” value [18] was 2.128%. The “Plasma Insulin Change” value [18] was 0.693 ng/mL, the “% Change in GIR” value [19] was 3.752% and the “Plasma Insulin Change” value [19] was 0.025 ng/mL. For the same substance, the “% Change in GIR” value [20] was 11.602%, the “Plasma Insulin Change” value [20] was 0.204 ng/mL and the “% Change in GIR” value [21] was 29.976%. The “Plasma Insulin Change” value [21] was 0.063 ng/mL, the “% Change in GIR” value [22] was 37.819% and the “Plasma Insulin Change” value [22] was 0.185 ng/mL. The “% Change in GIR” value [23] was 50.568%, the “Plasma Insulin Change” value [23] was -0.125 ng/mL and the “% Change in GIR” value [24] was 42.526%. The “Plasma Insulin Change” value [24] was 0.134 ng/mL, the “% Change in GIR” value [25] was 16.548% and the “Plasma Insulin Change” value [25] was -0.550 ng/mL. The “% Change in GIR” value [26] was -6.165%, the “Plasma Insulin Change” value [26] was -0.336 ng/mL and the “% Change in GIR” value [27] was -18.164%. The “Plasma Insulin Change” value [27] was 0.027 ng/mL, the “% Change in GIR” value [28] was -35.351% and the “Plasma Insulin Change” value [28] was -0.100 ng/mL. For the same substance, the “% Change in GIR” value [29] was -48.404% and the “Plasma Insulin Change” value [29] was 0.399 ng/mL.
